Tested on: MV-4-11 cells
Assay: Gene expression microarray analysis (Affymetrix PrimeView) and GSEA
Format: cell-based, human
Set-up: RFU PODN (11730768_x_at) / Fold change /veh PODN (11730768_x_at) / RFU LINC00158 (11744669_a_at) / Fold change /veh LINC00158 (11744669_a_at) / RFU DUSP10 (11751237_a_at) / Fold change /veh DUSP10 (11751237_a_at) / RFU ID3 (11757404_x_at) / Fold change /veh ID3 (11757404_x_at) / RFU PLEKHG5 (11737974_s_at) / Fold change /veh PLEKHG5 (11737974_s_at) / RFU LRRC4B (11730491_at) / Fold change /veh LRRC4B (11730491_at) / RFU GIMAP4 (11747438_a_at) / Fold change /veh GIMAP4 (11747438_a_at) / RFU KRT8 (11758183_x_at) / Fold change /veh KRT8 (11758183_x_at) / RFU CNN1 (11734310_a_at) / Fold change /veh CNN1 (11734310_a_at) / RFU VPS37D (11726825_at) / Fold change /veh VPS37D (11726825_at) / RFU C10orf10 (11716522_x_at) / Fold change /veh C10orf10 (11716522_x_at) / RFU KIR2DL2 /// KIR2DL4 /// KIR2DL5A /// KIR2DL5B /// KIR2DS1 /// KIR2DS2 /// KIR2DS3 /// KIR2DS4 /// KIR3DL3 /// KIR3DL3 /// KIR3DS1 (11738374_at) / Fold change /veh KIR2DL2 /// KIR2DL4 /// KIR2DL5A /// KIR2DL5B /// KIR2DS1 /// KIR2DS2 /// KIR2DS3 /// KIR2DS4 /// KIR3DL3 /// KIR3DL3 /// KIR3DS1 (11738374_at) / RFU C1QL1 (11718748_at) / Fold change /veh C1QL1 (11718748_at) / RFU TMPRSS4 (11747572_a_at) / Fold change /veh TMPRSS4 (11747572_a_at) / RFU HAMP (11756126_x_at) / Fold change /veh HAMP (11756126_x_at) / RFU RNFT2 (11725882_a_at) / Fold change /veh RNFT2 (11725882_a_at) / RFU NR4A2 (11747474_a_at) / Fold change /veh NR4A2 (11747474_a_at) / RFU ABCC12 (11746883_a_at) / Fold change /veh ABCC12 (11746883_a_at) / RFU TMEM136 (11760407_x_at) / Fold change /veh TMEM136 (11760407_x_at) / RFU CLDN22 /// WWC2 (11732394_at) / Fold change /veh CLDN22 /// WWC2 (11732394_at) / RFU HLA-DPB1 (11760878_x_at) / Fold change /veh HLA-DPB1 (11760878_x_at) / RFU SPINT1 (11716480_a_at) / Fold change /veh SPINT1 (11716480_a_at) / RFU GAP43 (11754022_s_at) / Fold change /veh GAP43 (11754022_s_at) / RFU A4GNT (11735810_at) / Fold change /veh A4GNT (11735810_at) / RFU PRB3 (11715151_x_at) / Fold change /veh PRB3 (11715151_x_at) / RFU TUBB4B (11761932_at) / Fold change /veh TUBB4B (11761932_at) / RFU CAPN14 (11732068_a_at) / Fold change /veh CAPN14 (11732068_a_at) / RFU TMCC2 (11721928_a_at) / Fold change /veh TMCC2 (11721928_a_at) / RFU IRGQ (11745062_a_at) / Fold change /veh IRGQ (11745062_a_at) / RFU FAM174B (11720279_a_at) / Fold change /veh FAM174B (11720279_a_at) / RFU TMPRSS4 (11748680_a_at) / Fold change /veh TMPRSS4 (11748680_a_at) / RFU FAM212B (11763350_a_at) / Fold change /veh FAM212B (11763350_a_at) / RFU PLEKHG5 (11743358_a_at) / Fold change /veh PLEKHG5 (11743358_a_at) / RFU ZSCAN30 (11745921_a_at) / Fold change /veh ZSCAN30 (11745921_a_at) / RFU CMKLR1 (11741424_a_at) / Fold change /veh CMKLR1 (11741424_a_at) / RFU LOC101060620 /// MAPK8IP1 (11723275_at) / Fold change /veh LOC101060620 /// MAPK8IP1 (11723275_at) / RFU SPTSSB (11747773_x_at) / Fold change /veh SPTSSB (11747773_x_at) / RFU PRSS12 (11739890_at) / Fold change /veh PRSS12 (11739890_at) / RFU BIN1 (11741810_x_at) / Fold change /veh BIN1 (11741810_x_at) / RFU WNT11 (11732464_a_at) / Fold change /veh WNT11 (11732464_a_at) / RFU C10orf10 (11716521_a_at) / Fold change /veh C10orf10 (11716521_a_at) / RFU C5orf56 (11738089_at) / Fold change /veh C5orf56 (11738089_at) / RFU CYB561 (11721691_x_at) / Fold change /veh CYB561 (11721691_x_at) / RFU ANKRD19P (11752326_a_at) / Fold change /veh ANKRD19P (11752326_a_at) / RFU OR2T12 /// OR2T33 /// OR2T8 (11738714_s_at) / Fold change /veh OR2T12 /// OR2T33 /// OR2T8 (11738714_s_at) / RFU VCAN (11748164_a_at) / Fold change /veh VCAN (11748164_a_at) / RFU JSRP1 (11732532_at) / Fold change /veh JSRP1 (11732532_at) / RFU KRTAP10-11 (11738290_x_at) / Fold change /veh KRTAP10-11 (11738290_x_at) / RFU MYO3A (11730013_a_at) / Fold change /veh MYO3A (11730013_a_at) / RFU EBF3 (11725865_a_at) / Fold change /veh EBF3 (11725865_a_at) / RFU CAMK2N1 (11719241_x_at) / Fold change /veh CAMK2N1 (11719241_x_at) / RFU C5orf56 (11738088_a_at) / Fold change /veh C5orf56 (11738088_a_at) / RFU OLFML3 (11715873_a_at) / Fold change /veh OLFML3 (11715873_a_at) / RFU LOC100653217 /// NTM (11731650_a_at) / Fold change /veh LOC100653217 /// NTM (11731650_a_at) / RFU MAPK11 (11762145_a_at) / Fold change /veh MAPK11 (11762145_a_at) / RFU FIZ1 (11724087_x_at) / Fold change /veh FIZ1 (11724087_x_at) / RFU OASL (11726364_x_at) / Fold change /veh OASL (11726364_x_at) / RFU SOX15 (11748057_x_at) / Fold change /veh SOX15 (11748057_x_at) / RFU CD79A (11719716_a_at) / Fold change /veh CD79A (11719716_a_at) / RFU HIST1H1D (11736915_at) / Fold change /veh HIST1H1D (11736915_at) / RFU CASKIN2 (11723855_a_at) / Fold change /veh CASKIN2 (11723855_a_at) / RFU LOC730098 (11760151_x_at) / Fold change /veh LOC730098 (11760151_x_at) / RFU OR4N2 (11742367_at) / Fold change /veh OR4N2 (11742367_at) / RFU PRRT2 (11749266_a_at) / Fold change /veh PRRT2 (11749266_a_at) / RFU SNX32 (11753110_a_at) / Fold change /veh SNX32 (11753110_a_at) / RFU CDHR5 (11726645_a_at) / Fold change /veh CDHR5 (11726645_a_at) / RFU RCAN1 (11760418_a_at) / Fold change /veh RCAN1 (11760418_a_at) / RFU FAM167A (11723789_a_at) / Fold change /veh FAM167A (11723789_a_at) / RFU FAM26E (11764081_at) / Fold change /veh FAM26E (11764081_at) / RFU ISYNA1 (11749810_s_at) / Fold change /veh ISYNA1 (11749810_s_at) / RFU ACY1 (11761880_at) / Fold change /veh ACY1 (11761880_at) / RFU 11764098_at / Fold change /veh 11764098_at / RFU SAMD14 (11745864_x_at) / Fold change /veh SAMD14 (11745864_x_at) / RFU NPB (11741838_a_at) / Fold change /veh NPB (11741838_a_at) / RFU TMPRSS6 (11731388_a_at) / Fold change /veh TMPRSS6 (11731388_a_at) / RFU KRTAP10-2 (11738614_at) / Fold change /veh KRTAP10-2 (11738614_at) / RFU ARHGAP8 /// PRR5-ARHGAP8 (11727945_x_at) / Fold change /veh ARHGAP8 /// PRR5-ARHGAP8 (11727945_x_at) / RFU KRTAP5-7 /// NADSYN1 (11734609_at) / Fold change /veh KRTAP5-7 /// NADSYN1 (11734609_at) / RFU RASL12 (11751679_a_at) / Fold change /veh RASL12 (11751679_a_at) / RFU CDKN2B (11736163_a_at) / Fold change /veh CDKN2B (11736163_a_at) / RFU PRF1 (11729649_at) / Fold change /veh PRF1 (11729649_at) / RFU, ZNF638 /// ZNF638-IT1 / Fold change vs veh, ZNF638 /// ZNF638-IT1 / RFU, PANK3 / Fold change vs veh, PANK3 / RFU, SH3YL1 / Fold change vs veh, SH3YL1 / RFU, ZEB2 / Fold change vs veh, ZEB2 / RFU, NRIP1 / Fold change vs veh, NRIP1 / RFU, PTTG1IP / Fold change vs veh, PTTG1IP / RFU, CAPN2 / Fold change vs veh, CAPN2 / RFU, MED14 / Fold change vs veh, MED14 / RFU, SNORA58 / Fold change vs veh, SNORA58 / RFU, C1orf63 / Fold change vs veh, C1orf63 / RFU, LRRFIP1 / Fold change vs veh, LRRFIP1 / RFU, NDUFAF7 / Fold change vs veh, NDUFAF7 / RFU, SLC12A2 / Fold change vs veh, SLC12A2 / RFU, IBTK / Fold change vs veh, IBTK / RFU, ESF1 / Fold change vs veh, ESF1 / Fold change vs veh, TMEM50B / RFU, TAOK1 / Fold change vs veh, TAOK1 / RFU, ACBD3 / Fold change vs veh, ACBD3 / RFU, TMA16 / Fold change vs veh, TMA16 / RFU, RWDD3 / Fold change vs veh, RWDD3 / RFU, BCAT1 / Fold change vs veh, BCAT1 / RFU, EDEM3 / Fold change vs veh, EDEM3 / RFU, TMEM33 / Fold change vs veh, TMEM33 / RFU, WDR75 / Fold change vs veh, WDR75 / RFU, AHCTF1 / Fold change vs veh, AHCTF1 / RFU, TFRC / Fold change vs veh, TFRC / RFU, ZDHHC17 / Fold change vs veh, ZDHHC17 / RFU, NOM1 / Fold change vs veh, NOM1 / RFU, ARL8B / Fold change vs veh, ARL8B / RFU, ZBTB11 / Fold change vs veh, ZBTB11 / RFU, TAMM41 / Fold change vs veh, TAMM41 / RFU, KIAA1704 /// LOC100996395 / Fold change vs veh, KIAA1704 /// LOC100996395 / RFU, ING1 / Fold change vs veh, ING1 / RFU, TRMT61B / Fold change vs veh, TRMT61B / RFU, FUBP3 / Fold change vs veh, FUBP3 / RFU, TP53 / Fold change vs veh, TP53 / RFU, TNKS2 / Fold change vs veh, TNKS2 / RFU, ZFP14 / Fold change vs veh, ZFP14 / RFU, ACTR2 / Fold change vs veh, ACTR2 / RFU, PPP3R1 / Fold change vs veh, PPP3R1 / RFU, PIK3R1 / Fold change vs veh, PIK3R1 / RFU, HNRNPA1 / Fold change vs veh, HNRNPA1 / RFU, RNF170 / Fold change vs veh, RNF170 / RFU, ZNF28 / Fold change vs veh, ZNF28 / RFU, RNGTT / Fold change vs veh, RNGTT / RFU, OGT / Fold change vs veh, OGT / RFU, BRD1 / Fold change vs veh, BRD1 / RFU, MARS / Fold change vs veh, MARS / RFU, ZNF655 / Fold change vs veh, ZNF655 / RFU, FAHD1 / Fold change vs veh, FAHD1 / RFU, BDP1 / Fold change vs veh, BDP1 / RFU, LRRCC1 / Fold change vs veh, LRRCC1 / RFU, ARID1A / Fold change vs veh, ARID1A / RFU, ZNF146 / Fold change vs veh, ZNF146 / RFU, ZNF330 / Fold change vs veh, ZNF330 / RFU, GPN3 / Fold change vs veh, GPN3 / RFU, C9orf123 / Fold change vs veh, C9orf123 / RFU, N4BP2L2 / Fold change vs veh, N4BP2L2 / RFU, ARFIP1 / Fold change vs veh, ARFIP1 / RFU, FAM179B / Fold change vs veh, FAM179B / RFU, BCL10 / Fold change vs veh, BCL10 / RFU, UHRF1BP1L / Fold change vs veh, UHRF1BP1L / RFU, BET1 / Fold change vs veh, BET1 / RFU, CNOT2 / Fold change vs veh, CNOT2 / RFU, ZNF268 / Fold change vs veh, ZNF268 / Fold change vs veh, ZNF507 / RFU, DGCR2 / Fold change vs veh, DGCR2 / RFU, WDSUB1 / Fold change vs veh, WDSUB1 / Fold change vs veh, HSP90B1 /// MIR3652 / RFU, ADSS / Fold change vs veh, ADSS / RFU, GK / Fold change vs veh, GK / RFU, ZNF148 / Fold change vs veh, ZNF148 / RFU, TAF9 / Fold change vs veh, TAF9 / RFU, SLC1A5 / Fold change vs veh, SLC1A5 / RFU, SLMO2 / Fold change vs veh, SLMO2 / RFU, ABCC4 / Fold change vs veh, ABCC4 / RFU, LOC101060439 /// RAP1B / Fold change vs veh, LOC101060439 /// RAP1B / RFU, RFX7 / Fold change vs veh, RFX7 / RFU, GTPBP10 / Fold change vs veh, GTPBP10 / RFU, CNEP1R1 / Fold change vs veh, CNEP1R1 / RFU, BIVM-ERCC5 /// ERCC5 / Fold change vs veh, BIVM-ERCC5 /// ERCC5 / RFU, ILF3 / Fold change vs veh, ILF3 / RFU 11762660_at / Fold change /veh 11762660_at / RFU VCAN (11757783_s_at) / Fold change /veh VCAN (11757783_s_at) / RFU DDX43 (11728927_at) / Fold change /veh DDX43 (11728927_at) / RFU KRT8 (11758188_x_at) / Fold change /veh KRT8 (11758188_x_at) / RFU NKD1 (11759106_at) / Fold change /veh NKD1 (11759106_at) / RFU SRD5A1 (11742802_a_at) / Fold change /veh SRD5A1 (11742802_a_at) / RFU TPSAB1 /// TPSB2 (11721975_s_at) / Fold change /veh TPSAB1 /// TPSB2 (11721975_s_at) / RFU GSTM3 (11746129_a_at) / Fold change /veh GSTM3 (11746129_a_at) / RFU IL23R (11737362_x_at) / Fold change /veh IL23R (11737362_x_at) / RFU TMEM51 (11727254_a_at) / Fold change /veh TMEM51 (11727254_a_at) / RFU PIWIL2 (11732686_x_at) / Fold change /veh PIWIL2 (11732686_x_at) / RFU ORM1 (11744905_x_at) / Fold change /veh ORM1 (11744905_x_at) / RFU CCDC152 (11743942_at) / Fold change /veh CCDC152 (11743942_at) / RFU ECM1 (11717891_a_at) / Fold change /veh ECM1 (11717891_a_at) / RFU IL23R (11748794_a_at) / Fold change /veh IL23R (11748794_a_at) / RFU TNFAIP8L3 (11732012_x_at) / Fold change /veh TNFAIP8L3 (11732012_x_at) / RFU MBOAT4 (11741988_at) / Fold change /veh MBOAT4 (11741988_at) / RFU 11764193_at / Fold change /veh 11764193_at / RFU TMEM53 (11763286_at) / Fold change /veh TMEM53 (11763286_at) / RFU MAGEB2 (11727129_at) / Fold change /veh MAGEB2 (11727129_at) / RFU TMEM200A (11744735_a_at) / Fold change /veh TMEM200A (11744735_a_at) / RFU CCDC152 (11751479_a_at) / Fold change /veh CCDC152 (11751479_a_at) / RFU FAM211A (11726209_a_at) / Fold change /veh FAM211A (11726209_a_at) / RFU RGS16 (11746705_a_at) / Fold change /veh RGS16 (11746705_a_at) / RFU VCAN (11755009_s_at) / Fold change /veh VCAN (11755009_s_at) / RFU RHOB (11743442_s_at) / Fold change /veh RHOB (11743442_s_at) / RFU RGS16 (11720943_a_at) / Fold change /veh RGS16 (11720943_a_at) / RFU RGS16 (11720944_at) / Fold change /veh RGS16 (11720944_at) / RFU, VPS4B / Fold change vs veh, VPS4B / RFU, CREB1 / Fold change vs veh, CREB1 / RFU, DNAJC13 / Fold change vs veh, DNAJC13 / RFU, GNAQ / Fold change vs veh, GNAQ / RFU, CDK5R1 / Fold change vs veh, CDK5R1 / RFU, ZRANB3 / Fold change vs veh, ZRANB3 / RFU, CUL4A / Fold change vs veh, CUL4A / RFU, CCNY / Fold change vs veh, CCNY / RFU, UFL1 / Fold change vs veh, UFL1 / RFU, COG3 / Fold change vs veh, COG3 / RFU, DIAPH2 / Fold change vs veh, DIAPH2 / RFU, SKA2 / Fold change vs veh, SKA2 / RFU, AFF3 / Fold change vs veh, AFF3 / RFU, LMF1 / Fold change vs veh, LMF1 / RFU, IPO11 / Fold change vs veh, IPO11 / RFU, DFFB / Fold change vs veh, DFFB / RFU, FOXP1 / Fold change vs veh, FOXP1 / RFU, CARD8 / Fold change vs veh, CARD8 / RFU, STRN3 / Fold change vs veh, STRN3 / RFU, ADK / Fold change vs veh, ADK / RFU, RASSF2 / Fold change vs veh, RASSF2 / RFU, WIPF1 / Fold change vs veh, WIPF1 / RFU, LARP1B / Fold change vs veh, LARP1B / RFU, RASA1 / Fold change vs veh, RASA1 / RFU, RB1 / Fold change vs veh, RB1 / RFU, PPFIA1 / Fold change vs veh, PPFIA1 / RFU, MAT2A / Fold change vs veh, MAT2A / RFU, CCT5 / Fold change vs veh, CCT5 / RFU, WDR92 / Fold change vs veh, WDR92 / RFU, CUX1 / Fold change vs veh, CUX1 / RFU, TTC7A / Fold change vs veh, TTC7A / RFU, TMEM135 / Fold change vs veh, TMEM135 / RFU, DEPTOR / Fold change vs veh, DEPTOR / RFU, CPM / Fold change vs veh, CPM / RFU, DNAJB6 / Fold change vs veh, DNAJB6 / RFU, CACNA2D3 / Fold change vs veh, CACNA2D3 / RFU, DTX4 / Fold change vs veh, DTX4 / RFU, TFCP2 / Fold change vs veh, TFCP2 / RFU, GMCL1 /// GMCL1P1 / Fold change vs veh, GMCL1 /// GMCL1P1 / RFU, AEBP2 / Fold change vs veh, AEBP2 / RFU, SNHG1 /// SNORD22 /// SNORD25 /// SNORD26 /// SNORD27 /// SNORD28 /// SNORD29 /// SNORD31 / Fold change vs veh, SNHG1 /// SNORD22 /// SNORD25 /// SNORD26 /// SNORD27 /// SNORD28 /// SNORD29 /// SNORD31 / Fold change (Aza/veh), C12orf56 (ProbeSet 11735607_a_at) / Fold change (ACY-1035/veh), C12orf56 (ProbeSet 11735607_a_at) / Fold change (Aza/veh), FGFR1OP (ProbeSet 11751329_s_at) / Fold change (ACY-1035/veh), FGFR1OP (ProbeSet 11751329_s_at) / Fold change (Aza/veh), VPS36 (ProbeSet 11739960_a_at) / Fold change (ACY-1035/veh), VPS36 (ProbeSet 11739960_a_at) / RFU SYPL1 (11715823_x_at) / Fold change /veh SYPL1 (11715823_x_at) / RFU IGFBP7 (11715501_s_at) / Fold change /veh IGFBP7 (11715501_s_at) / RFU REEP3 (11722064_at) / Fold change /veh REEP3 (11722064_at) / RFU IGLL1 (11728026_x_at) / Fold change /veh IGLL1 (11728026_x_at): dose or concentration left out as unconfirmed
Details: ProbeSet 11760938_a_at; LIST D

## Nc1ncn([C@@H]2O[C@H](CO)[C@@H](O)[C@H]2O)c(=O)n1 [azacitidine]
  Fold change vs veh, MAT2A: 0.66

— publication PMC5218480 (PLoS ONE, 2017)
